Data: paper PMC10408569, “Recruitment of hexahydroquinoline as anticancer scaffold targeting inhibition of wild and mutants EGFR (EGFR^WT, EGFR^T790M, and EGFR^L858R)” (Journal of Enzyme Inhibition and Medicinal Chemistry, 2023)

Experiments:
NCI-H460 = assay: NCI-60 anticancer screening (SRB); type: cell-based; conditions: Homo sapiens; NCI-H460, NSC lung cancer; one dose 10 μM; read-out: Growth Inhibition Percentage (GI %)
HCT-116 = assay: NCI-60 anticancer screening (SRB); type: cell-based; conditions: Homo sapiens; HCT-116, colon cancer; one dose 10 μM; read-out: Growth Inhibition Percentage (GI %)
SF-268 = assay: NCI-60 anticancer screening (SRB); type: cell-based; conditions: Homo sapiens; SF-268, CNS cancer; one dose 10 μM; read-out: Growth Inhibition Percentage (GI %)
M14 = assay: NCI-60 anticancer screening (SRB); type: cell-based; conditions: Homo sapiens; M14, melanoma; one dose 10 μM; read-out: Growth Inhibition Percentage (GI %)
SF-295 = assay: NCI-60 anticancer screening (SRB); type: cell-based; conditions: Homo sapiens; SF-295, CNS cancer; one dose 10 μM; read-out: Growth Inhibition Percentage (GI %)
HL-60(TB) = assay: NCI-60 anticancer screening (SRB); type: cell-based; conditions: Homo sapiens, leukemia, one dose 10 μM, read-out: Growth Inhibition Percentage (GI %)
HT29 = assay: NCI-60 anticancer screening (SRB); type: cell-based; conditions: Homo sapiens, HT-29; HT29, colon cancer; one dose 10 μM; read-out: Growth Inhibition Percentage (GI %)
MOLT-4 = assay: NCI-60 anticancer screening (SRB); type: cell-based; conditions: Homo sapiens; MOLT-4, leukemia; one dose 10 μM; read-out: Growth Inhibition Percentage (GI %)
DU-145 = assay: NCI-60 anticancer screening (SRB); type: cell-based; conditions: Homo sapiens; DU-145, prostate cancer; one dose 10 μM; read-out: Growth Inhibition Percentage (GI %)
K-562 = assay: NCI-60 anticancer screening (SRB); type: cell-based; conditions: Homo sapiens, K562; K-562, leukemia; one dose 10 μM; read-out: Growth Inhibition Percentage (GI %)
MDA-MB-435 = assay: NCI-60 anticancer screening (SRB); type: cell-based; conditions: Homo sapiens; MDA-MB-435, melanoma; one dose 10 μM; read-out: Growth Inhibition Percentage (GI %)
NCI-H522 = assay: NCI-60 anticancer screening (SRB); type: cell-based; conditions: Homo sapiens; NCI-H522, NSC lung cancer; one dose 10 μM; read-out: Growth Inhibition Percentage (GI %)
MCF7 = assay: NCI-60 anticancer screening (SRB); type: cell-based; conditions: Homo sapiens; MCF7, breast cancer; one dose 10 μM; read-out: Growth Inhibition Percentage (GI %)
HCT-15 = assay: NCI-60 anticancer screening (SRB); type: cell-based; conditions: Homo sapiens; HCT-15, colon cancer; one dose 10 μM; read-out: Growth Inhibition Percentage (GI %)
RXF 393 = assay: NCI-60 anticancer screening (SRB); type: cell-based; conditions: Homo sapiens; RXF 393, renal cancer; one dose 10 μM; read-out: Growth Inhibition Percentage (GI %)
OVCAR-8 = assay: NCI-60 anticancer screening (SRB); type: cell-based; conditions: Homo sapiens; OVCAR-8, ovarian cancer; one dose 10 μM; read-out: Growth Inhibition Percentage (GI %)
COLO 205 = assay: NCI-60 anticancer screening (SRB); type: cell-based; conditions: Homo sapiens; COLO 205, colon cancer; one dose 10 μM; read-out: Growth Inhibition Percentage (GI %)
UO-31 = assay: NCI-60 anticancer screening (SRB); type: cell-based; conditions: Homo sapiens; UO-31, renal cancer; one dose 10 μM; read-out: Growth Inhibition Percentage (GI %)
HS 578T = assay: NCI-60 anticancer screening (SRB); type: cell-based; conditions: Homo sapiens; HS 578T, breast cancer; one dose 10 μM; read-out: Growth Inhibition Percentage (GI %)
SF-539 = assay: NCI-60 anticancer screening (SRB); type: cell-based; conditions: Homo sapiens; SF-539, CNS cancer; one dose 10 μM; read-out: Growth Inhibition Percentage (GI %)
IGROV1 = assay: NCI-60 anticancer screening (SRB); type: cell-based; conditions: Homo sapiens, IGROV-1; IGROV1, ovarian cancer; one dose 10 μM; read-out: Growth Inhibition Percentage (GI %)
UACC-62 = assay: NCI-60 anticancer screening (SRB); type: cell-based; conditions: Homo sapiens; UACC-62, melanoma; one dose 10 μM; read-out: Growth Inhibition Percentage (GI %)
UACC-257 = assay: NCI-60 anticancer screening (SRB); type: cell-based; conditions: Homo sapiens; UACC-257, melanoma; one dose 10 μM; read-out: Growth Inhibition Percentage (GI %)
NCI/ADR-RES = assay: NCI-60 anticancer screening (SRB); type: cell-based; conditions: Homo sapiens, ovarian cancer, one dose 10 μM, read-out: Growth Inhibition Percentage (GI %)
PC-3 = assay: NCI-60 anticancer screening (SRB); type: cell-based; conditions: Homo sapiens; PC-3, prostate cancer; one dose 10 μM; read-out: Growth Inhibition Percentage (GI %)
HOP-62 = assay: NCI-60 anticancer screening (SRB); type: cell-based; conditions: Homo sapiens; HOP-62, NSC lung cancer; one dose 10 μM; read-out: Growth Inhibition Percentage (GI %)

SMILES | melting point | inhibition at 10 µM (NCI-H460) | inhibition at 10 µM (HCT-116) | inhibition at 10 µM (SF-268) | inhibition at 10 µM (M14) | inhibition at 10 µM (SF-295) | inhibition at 10 µM (HL-60(TB)) | inhibition at 10 µM (HT29) | inhibition at 10 µM (MOLT-4) | inhibition at 10 µM (DU-145) | inhibition at 10 µM (K-562) | inhibition at 10 µM (MDA-MB-435) | inhibition at 10 µM (NCI-H522) | inhibition at 10 µM (MCF7) | inhibition at 10 µM (HCT-15) | inhibition at 10 µM (RXF 393) | inhibition at 10 µM (OVCAR-8) | inhibition at 10 µM (COLO 205) | inhibition at 10 µM (UO-31) | inhibition at 10 µM (HS 578T) | further results
CCOC(=O)C1=C(N)N(c2ccccc2)C2=C(C(=O)CC(C)(C)C2)C1c1ccc(F)cc1 (racemic) [8a, (±)-Ethyl 2-amino-4–(4-fluorophenyl)-7,7-dimethyl-5-oxo-1-phenyl-1,4,5,6,7,8-hexahydroquinoline-3-carboxylate] | 215 to 217 °C | < 10% | < 10% | < 10% | < 10% | < 10% | < 10% | < 10% | < 10% | < 10% | < 10% | < 10% | < 10% | < 10% | < 10% | < 10% | < 10% | < 10% | < 10% | < 10% | inhibition at 10 µM (SF-539): < 10%; inhibition at 10 µM (IGROV1): < 10%; inhibition at 10 µM (UACC-62): < 10%; inhibition at 10 µM (UACC-257): < 10%; inhibition at 10 µM (NCI/ADR-RES): < 10%; inhibition at 10 µM (PC-3): < 10%; inhibition at 10 µM (HOP-62): < 10%
CCOC(=O)C1=C(N)N(c2ccc(C)cc2)C2=C(C(=O)CC(C)(C)C2)C1c1ccccc1OC (racemic) [6h, (±)-Ethyl 2-amino-4–(2-methoxyphenyl)-7,7-dimethyl-1–(4-methylphenyl)-5-oxo-1,4,5,6,7,8-hexahydroquinoline-3-carboxylate] | 181 to 183 °C | < 10% | < 10% | < 10% | < 10% | < 10% | < 10% | < 10% | < 10% | < 10% | < 10% | < 10% | < 10% | < 10% | < 10% | < 10% | < 10% | < 10% | 21% | < 10% | inhibition at 10 µM (SF-539): < 10%; inhibition at 10 µM (IGROV1): < 10%; inhibition at 10 µM (UACC-62): < 10%; inhibition at 10 µM (UACC-257): < 10%; inhibition at 10 µM (NCI/ADR-RES): < 10%; inhibition at 10 µM (PC-3): < 10%; inhibition at 10 µM (HOP-62): < 10%
CCOC(=O)C1=C(N)N(c2ccccc2)C2=C(C(=O)CC(C)(C)C2)C1c1ccccc1OC (racemic) [6g, (±)-Ethyl 2-amino-4–(2-methoxyphenyl)-7,7-dimethyl-5-oxo-1-phenyl-1,4,5,6,7,8-hexahydroquinoline-3-carboxylate] | 243 to 245 °C | < 10% | < 10% | < 10% | < 10% | 11% | < 10% | < 10% | < 10% | < 10% | < 10% | < 10% | < 10% | < 10% | < 10% | < 10% | < 10% | < 10% | 26% | < 10% | inhibition at 10 µM (SF-539): < 10%; inhibition at 10 µM (IGROV1): < 10%; inhibition at 10 µM (UACC-62): < 10%; inhibition at 10 µM (UACC-257): < 10%; inhibition at 10 µM (NCI/ADR-RES): < 10%; inhibition at 10 µM (PC-3): 11%; inhibition at 10 µM (HOP-62): < 10%
CCOC(=O)C1=C(N)N(c2ccc(C)cc2)C2=C(C(=O)CC(C)(C)C2)C1c1ccc(Cl)cc1 (racemic) [8d, (±)-Ethyl 2-amino-4–(4-chlorophenyl)-7,7-dimethyl-1–(4-methylphenyl)-5-oxo-1,4,5,6,7,8-hexahydroquinoline-3-carboxylate] | 205 to 207 °C | 21% | 14% | < 10% | < 10% | < 10% | 21% | 33% | < 10% | < 10% | < 10% | < 10% | 15% | 35% | 35% | < 10% | 13% | 23% | 16% | < 10% | inhibition at 10 µM (SF-539): < 10%; inhibition at 10 µM (IGROV1): < 10%; inhibition at 10 µM (UACC-62): 24%; inhibition at 10 µM (UACC-257): < 10%; inhibition at 10 µM (NCI/ADR-RES): < 10%; inhibition at 10 µM (PC-3): 43%; inhibition at 10 µM (HOP-62): < 10%
CCOC(=O)C1=C(N)N(c2ccc(C)cc2)C2=C(C(=O)CC(C)(C)C2)C1c1ccccc1Cl (racemic) [6b, (±)-Ethyl 2-amino-4–(2-chlorophenyl)-7,7-dimethyl-1–(4-methylphenyl)-5-oxo-1,4,5,6,7,8-hexahydroquinoline-3-carboxylate] | 240 to 242 °C | 20% | 17% | < 10% | < 10% | < 10% | < 10% | 30% | < 10% | < 10% | < 10% | < 10% | 17% | 32% | 30% | < 10% | 20% | 19% | 19% | < 10% | inhibition at 10 µM (SF-539): < 10%; inhibition at 10 µM (IGROV1): < 10%; inhibition at 10 µM (UACC-62): 23%; inhibition at 10 µM (UACC-257): < 10%; inhibition at 10 µM (NCI/ADR-RES): < 10%; inhibition at 10 µM (PC-3): 43%; inhibition at 10 µM (HOP-62): < 10%
